Data on three compounds can be found in paper PMC8630787 (ACS Sensors, 2021).

Molecules are shown by their SMILES.

Usually IC50 stands for the midpoint of a concentration-inhibition curve. A lower IC50 goes with greater potency.

For this assay, the target named is dihydroorotate dehydrogenase (DHODH) (Homo sapiens, UniProt Q02127). The experiment in a line: colorimetric DCIP reduction enzyme assay ([…] DHODH, L-DHO, coenzyme Q10). It counts as biochemical.
Chain of dihydroorotate dehydrogenase (DHODH) (Q02127 whole entry): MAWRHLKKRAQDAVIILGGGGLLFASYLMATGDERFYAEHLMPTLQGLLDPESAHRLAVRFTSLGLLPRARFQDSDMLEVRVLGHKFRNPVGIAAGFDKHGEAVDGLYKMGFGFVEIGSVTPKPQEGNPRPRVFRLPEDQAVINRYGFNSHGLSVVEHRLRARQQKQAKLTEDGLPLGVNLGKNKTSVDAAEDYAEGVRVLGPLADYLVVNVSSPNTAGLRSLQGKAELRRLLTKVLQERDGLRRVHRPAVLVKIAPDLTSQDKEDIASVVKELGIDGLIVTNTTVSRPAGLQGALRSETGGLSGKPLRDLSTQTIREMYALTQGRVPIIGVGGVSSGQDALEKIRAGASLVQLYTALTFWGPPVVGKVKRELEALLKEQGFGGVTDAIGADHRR
`C/C(O)=C(\C#N)C(=O)Nc1ccc(OC(F)(F)F)cc1` [CF3O-TF] showed a half-maximal inhibitory concentration (IC50) of 330 nM. Under `C/C(O)=C(\C#N)C(=O)Nc1ccc(S(F)(F)(F)(F)F)cc1` [SF5-TF] stands 580 nM; under `C/C(O)=C(\C#N)C(=O)Nc1cc(C(F)(F)F)cc(C(F)(F)F)c1` [di-CF3-TF], 1320 nM.
